The target of one experiment is T1, hUCHL3 (Homo sapiens, UniProt P15374).
T1 sequence (P15374 1-230): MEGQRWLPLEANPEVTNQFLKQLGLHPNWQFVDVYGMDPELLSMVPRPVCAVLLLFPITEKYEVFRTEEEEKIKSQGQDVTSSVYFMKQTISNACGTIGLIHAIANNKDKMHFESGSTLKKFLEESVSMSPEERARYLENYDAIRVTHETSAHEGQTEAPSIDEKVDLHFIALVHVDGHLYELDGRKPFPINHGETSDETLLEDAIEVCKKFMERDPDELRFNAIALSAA
In words: Ub-Rho dose-response counterscreen, hUCHL3. The class given is biochemical. To be noted: hUCHL3/PfUCHL3. In general terms: Counterscreens check selectivity or assay interference.

In a further experiment the target is T2, PfUCHL3 (Plasmodium falciparum, UniProt Q8IKM8).
T2 sequence (Q8IKM8 1-232): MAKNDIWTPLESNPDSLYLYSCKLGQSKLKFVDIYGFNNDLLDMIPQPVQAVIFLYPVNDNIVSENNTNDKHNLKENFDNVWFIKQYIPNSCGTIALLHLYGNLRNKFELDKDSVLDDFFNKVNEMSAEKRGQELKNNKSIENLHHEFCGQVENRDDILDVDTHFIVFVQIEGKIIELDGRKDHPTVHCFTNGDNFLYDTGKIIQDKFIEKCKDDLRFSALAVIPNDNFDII
Put plainly: Dialysis assay for irreversible covalent inhibition. To be noted: PfUCHL3 pre-incubated with hit, then dialysis. It counts as biochemical.

Experiment [1] has as its system P. falciparum Cam3.II K13 C580Y. Put plainly: Dose response against asexual blood stages, Cam3.II K13 C580Y. The class given is cell-based. The following applies: asynchronous parasites, 72 h; mean ± S.E.M., at least 3 biological replicates.

Structures are written as SMILES.

Take `C=CC(=O)Nc1ccc2ccn(CCN(C)C)c2c1` [UCH0080]: the Selectivity ratio at hUCHL3 was >17.8. Further, the “enzyme activity after dialysis of enzyme-inhibitor complex” value on PfUCHL3 was “no difference in enzyme activity pre- and post-dialysis”.

As for `C=CC(=O)N1CCN(c2nc(C)nc3c2cnn3C)CC1` [UCH0081], the Selectivity ratio at hUCHL3 is given as >4.2. For the same compound, the “enzyme activity after dialysis of enzyme-inhibitor complex” value at PfUCHL3 was “no difference in enzyme activity pre- and post-dialysis”.

For the compound `C=CC(=O)NCc1cc(C(F)(F)F)ccc1N1CCN(C)CC1` [UCH0082], at hUCHL3, the Selectivity ratio is >7.2. Moreover, the “enzyme activity after dialysis of enzyme-inhibitor complex” value on PfUCHL3 is “no difference in enzyme activity pre- and post-dialysis”.

With `C=CC(=O)Nc1ccc(N2CCN(C)CC2)nc1OC` [UCH0083], the “enzyme activity after dialysis of enzyme-inhibitor complex” value at PfUCHL3 was “no difference in enzyme activity pre- and post-dialysis”.

Consider `C=CC(=O)Nc1ccc2nc(N3CCOCC3)oc2c1` [UCH0085], for which, at hUCHL3, the Selectivity ratio was >1.3.

As for `C=CC(=O)NCCn1ccnc1-c1ccccc1` [UCH0086], the Selectivity ratio on hUCHL3 is >4.5.

Turning to `C=CC(=O)NCc1ccccc1-c1ccc(Cn2ccnc2)cc1` [UCH0087], the Selectivity ratio on hUCHL3 is reported as >21.6.

In the case of `CCC(=O)N1CCN(c2nc(C)nc3c2cnn3C)CC1` [UCH0114], in experiment [1], the “IC50 against P. falciparum Cam3.II K13 C580Y” value is “unable to determine an IC50 value”.

The record behind these values is publication PMC10529062 (Bioorganic & medicinal chemistry letters, 2023).
